Source: patent publication US20250282799A1, “SUBSTITUTED PYRIDO[4,3-d]PYRIMIDINES AS KRAS MODULATORS” (Alterome Therapeutics, Inc., priority 2023, published 2025)

system: KRAS G12V dependent lung adenocarcinoma cell line, NCI-H441; experiment: Cellular pERK (Thr202/Tyr204) FRET/HTRF assay; assay type: cell-based; settings: Homo sapiens, NCI-H441, cellular pERK (Thr202/Tyr204) HTRF, NCI-H441 cells
In short: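 IC50 reflects inhibition of ERK1/2 Thr202/Tyr204 phosphorylation, quantified by HTRF after a 1 hr treatment of KRAS G12V-driven NCI-H441 cells. DMSO served as negative control.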

IC50 [nM]	Compound
< 50	[2H]C1([2H])CC[C@@]2(C([2H])([2H])Oc3nc(N4CCOC[C@H]5[C@H](F)[C@H]54)c4cnc(-c5cc(N)cc6ccc(F)c(C#C)c56)c(F)c4n3)C[C@@]([2H])(F)CN12 [Example 193, 5-ethynyl-6-fluoro-4-(8-fluoro-4-((1S,7S,8S)-8-fluoro-5-oxa-2-azabicyclo[5.1.0]octan-2-yl)-2-(((2R,7aS)-2-fluorotetrahydro-1H-pyrrolizin-7a(5H)-yl-2,5,5-d3)methoxy-d2)pyrido[4,3-d]pyrimidin-7-yl)naphthalen-2-amine]
500 to 10000	Cc1c(F)c(N)cc(-c2ncc3c(N4CCCC[C@@H]5[C@@H](F)[C@@H]54)nc(OC[C@@]45CCCN4C/C(=C\F)C5)nc3c2F)c1C(F)(F)F [Example 399, 2-fluoro-5-(8-fluoro-4-((1R,7S,8R)-8-fluoro-2-azabicyclo[5.1.0]octan-2-yl)-2-(((S,Z)-2-(fluoromethylene)tetrahydro-1H-pyrrolizin-7a(5H)-yl)methoxy)pyrido[4,3-d]pyrimidin-7-yl)-3-methyl-4-(trifluoromethyl)aniline]
500 to 10000	Cc1c(F)c(N)cc(-c2ncc3c(N4CCCC[C@@H]5[C@@H](F)[C@@H]54)nc(OC[C@@]45CCCN4C/C(=C/F)C5)nc3c2F)c1C(F)(F)F [Example 397, 2-fluoro-5-(8-fluoro-4-((1R,7S,8R)-8-fluoro-2-azabicyclo[5.1.0]octan-2-yl)-2-(((S,E)-2-(fluoromethylene)tetrahydro-1H-pyrrolizin-7a(5H)-yl)methoxy)pyrido[4,3-d]pyrimidin-7-yl)-3-methyl-4-(trifluoromethyl)aniline]
< 50	C=C1CN2CCC3(CC3)[C@@]2(COc2nc(N3CCOC[C@H]4[C@H](F)[C@H]43)c3cnc(-c4cc(N)c(F)c(C)c4C(F)(F)F)c(F)c3n2)C1 [Example 226, 2-fluoro-5-(8-fluoro-4-((1S,7S,8S)-8-fluoro-5-oxa-2-azabicyclo[5.1.0]octan-2-yl)-2-(((R)-6′-methylenetetrahydrospiro[cyclopropane-1,1′-pyrrolizin]-7a′(5′H)-yl)methoxy)pyrido[4,3-d]pyrimidin-7-yl)-3-methyl-4-(trifluoromethyl)aniline]
< 50	[2H]C([2H])([2H])Oc1c(F)cc(F)c2cc(N)cc(-c3ncc4c(N5CCOC[C@H]6[C@H](F)[C@H]65)nc(OC([2H])([2H])[C@@]56CCCN5C[C@H](F)C6)nc4c3F)c12 [Example 131, 6,8-difluoro-4-(8-fluoro-4-((1S,7S,8S)-8-fluoro-5-oxa-2-azabicyclo[5.1.0]octan-2-yl)-2-(((2R,7aS)-2-fluorotetrahydro-1H-pyrrolizin-7a(5H)-yl)methoxy-d2)pyrido[4,3-d]pyrimidin-7-yl)-5-(methoxy-d3)naphthalen-2-amine]
< 50	[2H]C([2H])(Oc1nc(N2CCOC[C@H]3[C@H](F)[C@H]32)c2cnc(-c3cc(N)cc4ccc(F)c(C#C)c34)c(F)c2n1)[C@@]12CCCN1C[C@@H](Cl)C2 (single isomer, unassigned) [Example 237]
< 50	[2H]C([2H])([2H])Oc1c(F)c(F)c(F)c2cc(N)cc(-c3ncc4c(N5CCOC[C@H]6[C@H](F)[C@H]65)nc(OC[C@@]56CCCN5CC(=C(F)F)C6)nc4c3F)c12 [Example 142, 4-(2-(((S)-2-(difluoromethylene)tetrahydro-1H-pyrrolizin-7a(5H)-yl)methoxy)-8-fluoro-4-((1S,7S,8S)-8-fluoro-5-oxa-2-azabicyclo[5.1.0]octan-2-yl)pyrido[4,3-d]pyrimidin-7-yl)-6,7,8-trifluoro-5-(methoxy-d3)naphthalen-2-amine]
500 to 10000	C#Cc1c(C(F)(F)F)ccc2cccc(-c3ncc4c(N5CCOC[C@H]6[C@H](F)[C@H]65)nc(OC[C@]56C[C@@H](F)CN5C[C@@H](CN)C6)nc4c3F)c12 [Example 336, ((2R,6R,7aS)-7a-(((7-(8-ethynyl-7-(trifluoromethyl)naphthalen-1-yl)-8-fluoro-4-((1S,7S,8S)-8-fluoro-5-oxa-2-azabicyclo[5.1.0]octan-2-yl)pyrido[4,3-d]pyrimidin-2-yl)oxy)methyl)-6-fluorohexahydro-1H-pyrrolizin-2-yl)methanamine]
500 to 10000	C#Cc1c(F)c(F)cc2cccc(-c3ncc4c(N5CCOC[C@@H]6[C@@H](F)[C@@H]65)nc(OC[C@@]56CCCN5CC(=C(F)F)C6)nc4c3F)c12 [Example 106, (1R,7R,8R)-2-(2-(((S)-2-(difluoromethylene)tetrahydro-1H-pyrrolizin-7a(5H)-yl)methoxy)-7-(8-ethynyl-6,7-difluoronaphthalen-1-yl)-8-fluoropyrido[4,3-d]pyrimidin-4-yl)-8-fluoro-5-oxa-2-azabicyclo[5.1.0]octane]
< 50	[2H]C([2H])(Oc1nc(N2CCOC[C@H]3[C@H](F)[C@H]32)c2cnc(-c3cc(N)cc4ccc(F)c(C#C)c34)c(F)c2n1)[C@@]12CCCN1C[C@H](CC#N)C2 (single isomer, unassigned) [Example 315]
< 50	C#Cc1c(F)ccc2cc(N)cc(-c3ncc4c(N5CCOC[C@H]6[C@H](F)[C@H]65)nc(OC[C@]56C[C@@]7(CN5CCC65CC5)CC7(F)F)nc4c3F)c12 (single isomer, unassigned) [Example 218]

same assay, conditions: Homo sapiens, NCI-H441, cellular pERK HTRF, NCI-H441 (KRAS G12V) cells

IC50 [nM]	Compound
< 50	[2H]C([2H])(Oc1nc(N2CCOC[C@H]3[C@H](F)[C@H]32)c2cnc(-c3cc(O)cc4ccc(F)c(C#C)c34)c(C)c2n1)[C@@]12CCCN1[C@H](C)[C@H](F)C2 [Example 471, 5-ethynyl-6-fluoro-4-(2-(((2R,3R,7aS)-2-fluoro-3-methyltetrahydro-1H-pyrrolizin-7a(5H)-yl)methoxy-d2)-4-((1S,7S,8S)-8-fluoro-5-oxa-2-azabicyclo[5.1.0]octan-2-yl)-8-methylpyrido[4,3-d]pyrimidin-7-yl)naphthalen-2-ol]
< 50	[2H]C([2H])(Oc1nc(N2CCCC[C@H]3[C@H](F)[C@H]32)c2cnc(-c3cc(O)cc4ccc(F)c(C#C)c34)c(C)c2n1)[C@@]12CCCN1CC(=C)C2 [Example 461, 5-Ethynyl-6-fluoro-4-(4-((1S,7R,8S)-8-fluoro-2-azabicyclo[5.1.0]octan-2-yl)-8-methyl-2-(((S)-2-methylenetetrahydro-1H-pyrrolizin-7a(5H)-yl)methoxy-d2)pyrido[4,3-d]pyrimidin-7-yl)naphthalen-2-ol]

same assay, conditions: Homo sapiens, NCI-H441, pERK HTRF, NCI-H441 cells (KRAS G12V)

IC50 [nM]	Compound
500 to 10000	[2H]C([2H])(Oc1nc(N2CCCO[C@@H]3C[C@@H]32)c2cnc(-c3ccc(F)c4sc(N)c(C#N)c34)c(F)c2n1)[C@@]12CCCN1C[C@H](F)C2 [Example 40, 4-(4-((1R,7S)-2-Oxa-6-azabicyclo[5.1.0]octan-6-yl)-8-fluoro-2-(((2R,7aS)-2-fluorotetrahydro-1H-pyrrolizin-7a(5H)-yl)methoxy-d2)pyrido[4,3-d]pyrimidin-7-yl)-2-amino-7-fluorobenzo[b]thiophene-3-carbonitrile]
500 to 10000	[2H]C([2H])(Oc1nc(N2CCCO[C@@H]3[C@@H](F)[C@@H]32)c2cnc(-c3cc(N)cc4cc(F)c(F)c(C#C)c34)c(F)c2n1)[C@@]12CCCN1C[C@H](F)C2 [Example 23, 5-Ethynyl-6,7-difluoro-4-(8-fluoro-4-((1S,7R,8S)-8-fluoro-2-oxa-6-azabicyclo[5.1.0]octan-6-yl)-2-(((2R,7aS)-2-fluorotetrahydro-1H-pyrrolizin-7a(5H)-yl)methoxy-d2)pyrido[4,3-d]pyrimidin-7-yl)naphthalen-2-amine]
< 50	[2H]C([2H])(Oc1nc(N2CCCO[C@H]3[C@H](F)[C@H]32)c2cnc(-c3cccc4cc(F)c(F)c(C#C)c34)c(F)c2n1)[C@@]12CCCN1C[C@H](F)C2 [Example 76, (1R,7S,8R)-6-(7-(8-Ethynyl-6,7-difluoronaphthalen-1-yl)-8-fluoro-2-(((2R,7aS)-2-fluorotetrahydro-1H-pyrrolizin-7a(5H)-yl)methoxy-d2)pyrido[4,3-d]pyrimidin-4-yl)-8-fluoro-2-oxa-6-azabicyclo[5.1.0]octane]

same assay, conditions: cellular pERK (Thr202/Tyr204) HTRF, NCI-H441 cells

IC50 [nM]	Compound
500 to 10000	[2H]C([2H])(Oc1nc(N2CCOC[C@H]3[C@H](F)[C@H]32)c2cc(F)c(-c3cc(N)cc4ccc(F)c(C#C)c34)c(F)c2n1)[C@@]12CCCN1C[C@H](F)C2 (atropisomer, axis not shown; (aS)) [Example 400, 4-((S)-6,8-difluoro-4-((1S,7S,8S)-8-fluoro-5-oxa-2-azabicyclo[5.1.0]octan-2-yl)-2-(((2R,7aS)-2-fluorotetrahydro-1H-pyrrolizin-7a(5H)-yl)methoxy-d2)quinazolin-7-yl)-5-ethynyl-6-fluoronaphthalen-2-amine]
50 to 500	[2H]C([2H])(Oc1nc(N2CCOC[C@@H]3[C@@H](Cl)[C@@H]32)c2cc(C(F)(F)F)c(-c3ccc(F)c4sc(N)c(C#N)c34)c(F)c2n1)[C@@]12CCCN1C[C@H](F)C2 (atropisomer, axis not shown; (aS)) [Example 419, 2-amino-4-((S)-4-((1R,7R,8R)-8-chloro-5-oxa-2-azabicyclo[5.1.0]octan-2-yl)-8-fluoro-2-(((2R,7aS)-2-fluorotetrahydro-1H-pyrrolizin-7a(5H)-yl)methoxy-d2)-6-(trifluoromethyl)quinazolin-7-yl)-7-fluorobenzo[b]thiophene-3-carbonitrile]
500 to 10000	[2H]C([2H])(Oc1nc(N2CCOC[C@H]3[C@H](F)[C@H]32)c2cc(C#N)c(-c3ccc(F)c4sc(N)c(C#N)c34)c(F)c2n1)[C@@]12CCCN1C[C@H](F)C2 (atropisomer, axis not shown; (aS)) [Example 351, (R)-7-(2-amino-3-cyano-7-fluorobenzo[b]thiophen-4-yl)-8-fluoro-4-((1S,7S,8S)-8-fluoro-5-oxa-2-azabicyclo[5.1.0]octan-2-yl)-2-(((2R,7aS)-2-fluorotetrahydro-1H-pyrrolizin-7a(5H)-yl)methoxy-d2)quinazoline-6-carbonitrile]
